Experimental data: patent publication US20100028325A1, “New Combination Of Cationic Preservatives With Taste-Masking Components” (LABORATORIOS MIRET, S.A., priority 2007, published 2010)

Assays:
Format in all cases: in vivo, human
panel of 10 persons [1] = experiment: Organoleptic taste evaluation of LAE (200 ppm) with masking agents in carbonated juice drink; settings: scale 1-no taste to 7-unbearable taste
Protocol: The combination of the test compound neohespiridin (NHDC) with LAE was investigated in a carbonated oral juice drink (a base sugar syrup with concentrated organic juice, manufactured by […] control solution of 200 ppm LAE in the juice drink was prepared. The test samples were prepared by direct dissolution of the test compound in the control solution. The test samples were compared with the control solution and with an untreated (blank) juice drink. The evaluation of the taste was based on the article titled “Reduction of saltiness and bitterness after a chlorhexidine rinse”, Chem. Senses 26: 105-116 (2001). […] The organoleptic studies were performed with a panel of 10 persons who were trained in experiments involving the tasting of bitter constituents. The panel was asked to compare samples containing a cationic surfactant alone or combined with one or more masking agent. The members of the panel were asked to indicate which sample was less bitter, thereby taking into account the scale of values defined as given above. The combination of LAE with only one masking agent, NAF®, was compared with a combination of several masking agents (one of these being NAF®) in carbonated orange juice drinks. The manner of determination of the organoleptic results is the same as described in example 1. The results are reported in the following table 3 where a solution A is compared with a solution B. Composition of solutions (all containing 200 ppm LAE): […] Different types of NAF® are investigated ([…] lemon, NAF® C Orange, etc., all produced by Ogawa). The carbonated orange juice drink is produced by Hausmann S.A.

panel of 10 persons [2] = experiment: Taste masking effect on MDLA (200 ppm) in carbonated juice drink; settings: scale 1-no taste to 7-unbearable taste
Protocol: The evaluation of the taste was based on the article titled “Reduction of saltiness and bitterness after a chlorhexidine rinse”, Chem. Senses 26: 105-116 (2001). […] The organoleptic studies were performed with a panel of 10 persons who were trained in experiments involving the tasting of bitter constituents. The panel was asked to compare samples containing a cationic surfactant alone or combined with one or more masking agent. The members of the panel were asked to indicate which sample was less bitter, thereby taking into account the scale of values defined as given above.

panel of 10 persons [3] = experiment: Determination of the taste in toothpaste containing LAE (7,500 ppm); settings: scale 1-no taste to 7-unbearable taste
Protocol: The evaluation of the taste was based on the article titled “Reduction of saltiness and bitterness after a chlorhexidine rinse”, Chem. Senses 26: 105-116 (2001). […] The organoleptic studies were performed with a panel of 10 persons who were trained in experiments involving the tasting of bitter constituents. The panel was asked to compare samples containing a cationic surfactant alone or combined with one or more masking agent. The members of the panel were asked to indicate which sample was less bitter, thereby taking into account the scale of values defined as given above. Determination of the taste in toothpaste. The toothpaste used is a standard opaque […] prepared by the addition of (in g): [table] […] A control sample contained LAE in a concentration of 7,500 ppm. The same concentration of LAE was present in all further investigated samples. […] The sweetening agents sorbitol and lactilol were investigated in the same test as described in example 11. The samples were prepared in similar manner, the concentration of LAE was 7,500 ppm.

consumer = experiment: Organoleptic experiments (beverages, toothpaste, food matrix, cosmetic preparation); settings: for neutralisation of the bitter taste of the cationic surfactant: high doses, combined with a cationic surfactant of formula (1), numerous experiments
panel of 10 persons [4] = experiment: Determination of the taste masking in toothpaste containing MDLA (7,500 ppm); settings: product 3,330 ppm + 7,500 ppm MDLA in toothpaste; scale 1-no taste to 7-unbearable taste
Protocol: The evaluation of the taste was based on the article titled “Reduction of saltiness and bitterness after a chlorhexidine rinse”, Chem. Senses 26: 105-116 (2001). […] The organoleptic studies were performed with a panel of 10 persons who were trained in experiments involving the tasting of bitter constituents. The panel was asked to compare samples containing a cationic surfactant alone or combined with one or more masking agent. The members of the panel were asked to indicate which sample was less bitter, thereby taking into account the scale of values defined as given above. Determination of the taste masking in toothpaste. The toothpaste used was produced in the manner described in example 11.

[5] = test compound 500 ppm + 200 ppm LAE in juice drink
[6] = test compound 1,000 ppm + 200 ppm LAE in juice drink
[7] = test compound 1,000 ppm + 200 ppm MDLA in juice drink
[8] = sweetening agent 200,000 ppm + 7,500 ppm LAE in toothpaste
[9] = test compound 10,000 ppm + 200 ppm LAE in juice drink
[10] = test compound 10,000 ppm + 200 ppm MDLA in juice drink
[11] = test compound 60,000 ppm + 200 ppm LAE in juice drink

CC1(C)[C@@H](O[C@H]2O[C@H](C(=O)O)[C@@H](O)[C@H](O)[C@H]2O[C@@H]2O[C@H](C(=O)O)[C@@H](O)[C@H](O)[C@H]2O)CC[C@]2(C)[C@H]3C(=O)C=C4[C@@H]5C[C@@](C)(C(=O)O)CC[C@]5(C)CC[C@@]4(C)[C@]3(C)CC[C@@H]12 [Glycyrrhizinate, monoammonium glycyrrhizinate]
Organoleptic results (panel of 10 persons [1]; test compound 250 ppm + 200 ppm LAE in juice drink): 2.3 | Organoleptic results (panel of 10 persons [1]; [5]): 2 | Organoleptic results (panel of 10 persons [1]; [6]): 2 | Organoleptic results (panel of 10 persons [2]; [7]): 2.4

CCCCCCCCCCCC(=O)N[C@@H](CCCN=C(N)N)C(=O)OCC.Cl [LAE, ethyl ester of the lauramide of the arginine monohydrochloride]
Organoleptic result (panel of 10 persons [3]; Control: 7,500 ppm LAE in toothpaste, no masking agent): 5.4

OC[C@@H](O)[C@@H](O[C@@H]1O[C@H](CO)[C@H](O)[C@H](O)[C@H]1O)[C@H](O)[C@@H](O)CO [Lactitol, lactitol]
neutralisation of the bitter taste of the cationic surfactant (consumer): does not neutralise the bitter taste | Organoleptic result (panel of 10 persons [3]; [8]): 5.1

COc1ccc(CCC(=O)c2c(O)cc(O[C@@H]3O[C@H](CO)[C@@H](O)[C@H](O)[C@H]3O[C@@H]3O[C@@H](C)[C@H](O)[C@@H](O)[C@H]3O)cc2O)cc1O [NHDC]
Organoleptic results (panel of 10 persons [1]; test compound 1 ppm + 200 ppm LAE in juice drink): 2.5

CCCCCCCCCCCCOS(=O)(=O)[O-].[Na+] [SDS, sodium dodecyl sulfate]
taste of the toothpaste (consumer; cationic surfactant of formula (1) combined only with SDS, cosmetic preparation): smooth taste | Organoleptic results (panel of 10 persons [1]; test compound 1,330 ppm + 200 ppm LAE in juice drink): 2.9 | Organoleptic results (panel of 10 persons [1]; test compound 1,960 ppm + 200 ppm LAE in juice drink): 2.3 | Organoleptic results (panel of 10 persons [1]; test compound 3,320 ppm + 200 ppm LAE in juice drink): 1.6 | Organoleptic result (panel of 10 persons [4]): 2.9 | Organoleptic result (panel of 10 persons [3]; product 1,960 ppm + 7,500 ppm LAE in toothpaste): 2.9 | Organoleptic result (panel of 10 persons [3]; product 3,330 ppm + 7,500 ppm LAE in toothpaste): 2.8 | Organoleptic results (panel of 10 persons [2]; test compound 3,320 ppm + 200 ppm MDLA in juice drink): 2.6

OC[C@@H](O)[C@@H](O)[C@H](O)[C@@H](O)CO [Sorbitol, sorbitol]
neutralisation of the bitter taste of the cationic surfactant (consumer): does not neutralise the bitter taste | Organoleptic result (panel of 10 persons [3]; [8]): 4.9

OC[C@H]1O[C@H](O[C@]2(CCl)O[C@H](CCl)[C@@H](O)[C@@H]2O)[C@H](O)[C@@H](O)[C@H]1Cl [Sucralose, sucralose]
Organoleptic results (panel of 10 persons [1]; test compound 5 ppm + 200 ppm LAE in juice drink): 2.7

OC[C@@H](O)[C@@H](O)[C@H](O)[C@H](O)CO [mannitol]
neutralisation of the bitter taste of the cationic surfactant (consumer): does not neutralise the bitter taste

CC(=O)[O-].[Na+] [sodium acetate]
Organoleptic results (panel of 10 persons [1]; [6]): 2.8 | Organoleptic results (panel of 10 persons [1]; [9]): 2.3 | Organoleptic results (panel of 10 persons [2]; [10]): 2.8

N[C@@H](CCC(=O)[O-])C(=O)[O-].[Na+].[Na+] [sodium glutamate]
Organoleptic results (panel of 10 persons [1]; [6]): 5.0 | Organoleptic results (panel of 10 persons [1]; [11]): 4.8 | Organoleptic results (panel of 10 persons [2]; [7]): 5.4

OC[C@H]1O[C@@](CO)(O[C@H]2O[C@H](CO)[C@@H](O)[C@H](O)[C@H]2O)[C@@H](O)[C@@H]1O [sugar]
neutralisation of the bitter taste of the cationic surfactant (consumer): does not neutralise the bitter taste | Organoleptic results (panel of 10 persons [1]; [9]): 5.0 | Organoleptic results (panel of 10 persons [1]; [11]): 4.8 | Organoleptic results (panel of 10 persons [2]; [10]): 5.1

OC[C@H]1O[C@@H]2O[C@H]3[C@H](O)[C@@H](O)[C@@H](O[C@H]4[C@H](O)[C@@H](O)[C@@H](O[C@H]5[C@H](O)[C@@H](O)[C@@H](O[C@H]6[C@H](O)[C@@H](O)[C@@H](O[C@H]7[C@H](O)[C@@H](O)[C@@H](O[C@H]8[C@H](O)[C@@H](O)[C@@H](O[C@H]1[C@H](O)[C@H]2O)O[C@@H]8CO)O[C@@H]7CO)O[C@@H]6CO)O[C@@H]5CO)O[C@@H]4CO)O[C@@H]3CO [β-cyclodextrin]
Organoleptic results (panel of 10 persons [1]; [6]): 2.1 | Organoleptic result (panel of 10 persons [3]; product 2,000 ppm + 7,500 ppm LAE in toothpaste): 2.7

lysozyme
Organoleptic results (panel of 10 persons [1]; [5]): 2.5 | Organoleptic results (panel of 10 persons [1]; test compound 2,500 ppm + 200 ppm LAE in juice drink): 2 | Organoleptic results (panel of 10 persons [2]; test compound 2,500 ppm + 200 ppm MDLA in juice drink): 2.7
